Data published in patent US20100272674A1, “Hepatitis C Virus Inhibitors” (Bristol-Myers Squibb Company, priority 2008, published 2010).

Tests used:
[1] = molecular target: T1, HCV NS3/4A protease complex (Hepatitis C virus genotype 1a, UniProt P27958, C1454S/C1711G); assay: FRET peptide assay to monitor HCV NS3/4A proteolytic activity; type: biochemical
T1 construct: DNA encoding the recombinant HCV NS3/4A protease complex (amino acids 1027 to 1711) for these strains; inferred from pET21b vector and Ni-NTA purification; made in house; host or cells: Escherichia coli BL21 (DE3)
T1 sequence (P27958 1027-1711 C1454S/C1711G, one chain of several): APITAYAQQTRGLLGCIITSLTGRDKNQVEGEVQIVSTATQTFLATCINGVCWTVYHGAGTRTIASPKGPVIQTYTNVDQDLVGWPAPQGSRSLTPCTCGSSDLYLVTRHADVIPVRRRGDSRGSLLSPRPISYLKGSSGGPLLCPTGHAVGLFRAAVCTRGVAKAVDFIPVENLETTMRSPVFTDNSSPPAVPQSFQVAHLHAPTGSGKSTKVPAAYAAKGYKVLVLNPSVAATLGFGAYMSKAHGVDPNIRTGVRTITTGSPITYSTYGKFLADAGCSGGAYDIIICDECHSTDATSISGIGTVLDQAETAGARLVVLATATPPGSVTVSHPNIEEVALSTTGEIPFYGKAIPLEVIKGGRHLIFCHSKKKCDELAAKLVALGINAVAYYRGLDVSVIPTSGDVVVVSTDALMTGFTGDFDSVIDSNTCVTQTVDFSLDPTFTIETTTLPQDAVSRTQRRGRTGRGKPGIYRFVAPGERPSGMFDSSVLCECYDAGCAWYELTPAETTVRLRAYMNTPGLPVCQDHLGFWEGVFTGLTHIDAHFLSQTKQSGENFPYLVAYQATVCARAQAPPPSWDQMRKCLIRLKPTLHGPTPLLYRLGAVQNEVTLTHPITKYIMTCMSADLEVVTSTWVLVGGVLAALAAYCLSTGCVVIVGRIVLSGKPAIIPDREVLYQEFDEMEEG
Text: HCV NS3 protease complexes, derived from the BMS strain, H77 strain or J4L6S strain, were generated, as described below. These purified recombinant proteins were generated for use in a homogeneous assay (see below) to provide an indication of how effective compounds of the present disclosure would be in inhibiting HCV NS3 proteolytic activity.
Serum from an HCV-infected patient was obtained from Dr. T. Wright, San Francisco Hospital. An engineered full-length cDNA (compliment deoxyribonucleic acid) template of the HCV genome (BMS strain) was constructed from DNA fragments obtained by reverse transcription-PCR (RT-PCR) of serum RNA (ribonucleic acid) and using primers selected on the basis of homology between other genotype 1a strains. From the determination of the entire genome sequence, a genotype 1a was assigned to the HCV isolate according to the classification of Simmonds et al. (See P Simmonds, K A Rose, S Graham, S W Chan, F McOmish, B C Dow, E A Follett, P L Yap and H Marsden, J. Clin. Microbial., 31(6), 1493-1503 (1993)). […] The infectious clones, H77 (1a genotype) and J4L6S (1b genotype) were obtained from R. Purcell (NIH) and the sequences are published in Genbank (AAB67036, see Yanagi, M., Purcell, R. H., Emerson, S. U. and Bukh, J. Proc. Natl. Acad. Sci. USA. 94(16), 8738-8743 (1997); AF054247, see Yanagi, M., St Claire, M., Shapiro, M., Emerson, S. U., Purcell, R. H. and Bukh, J., Virology 244 (1), 161-172. (1998)).
The H77 and J4L6S strains were used for production of recombinant NS3/4A protease complexes. DNA encoding the recombinant HCV NS3/4A protease complex (amino acids 1027 to 1711) for these strains was manipulated as described by P. Gallinari et al. (see Gallinari P, Paolini C, Brennan D, Nardi C, Steinkuhler C, De Francesco R. Biochemistry. 38(17):5620-32, (1999)). Briefly, a three-lysine solubilizing tail was added at the 3′-end of the NS4A coding region. The cysteine in the P1 position of the NS4A-NS4B cleavage site (amino acid 1711) was changed to a glycine to avoid the proteolytic cleavage of the lysine tag. […]

[2] = tested on: HCV replicon in HUH-7 cells; assay: HCV replicon FRET assay; type: cell-based, Hepatitis C virus (strain 1b); settings: Hepatitis C virus, Huh-7, 96 h
Text: An HCV replicon whole cell system was established as described by Lohmann V, Korner F, Koch J, Herian U, Theilmann L, Bartenschlager R., Science 285(5424):110-3 (1999). This system enabled us to evaluate the effects of our HCV Protease compounds on HCV RNA replication. Briefly, using the HCV strain 1b sequence described in the Lohmann paper (Assession number:AJ238799), an HCV cDNA was synthesized by Operon Technologies, Inc. (Alameda, Calif.), and the full-length replicon was then assembled in plasmid pGem9zf(+) (Promega, Madison, Wis.) using standard molecular biology techniques. […]
The HCV replicon FRET assay was developed to monitor the inhibitory effects of compounds described in the disclosure on HCV viral replication. […] After 4 days, cells were first assessed for cytotoxicity using alamar Blue (Trek Diagnotstic Systems) for a CC50 reading. The toxicity of compound (CC50) was determined by adding 1/10th volume of alamar Blue to the media incubating the cells. After 4 h, the fluorescence signal from each well was read, with an excitation wavelength at 530 nm and an emission wavelength of 580 nm, using the Cytofluor Series 4000 (Perspective Biosystems). […]

[3] = tested on: HCV 1b replicon (Renilla luciferase reporter) in HUH-7 cells; assay: HCV replicon luciferase reporter assay; type: cell-based, Hepatitis C virus (strain 1b); settings: Huh-7, 96 h, 4 days, read-out: Potency in the 1b luciferase assay
Text: As a secondary assay, EC50 determinations from the replicon FRET assay were confirmed in a replicon luciferase reporter assay. Utilization of a replicon luciferase reporter assay was first described by Krieger et al (Krieger N, Lohmann V, and Bartenschlager R, J. Virol. 75(10):4614-4624 (2001)). The replicon construct described for our FRET assay was modified by inserting cDNA encoding a humanized form of the Renilla luciferase gene and a linker sequence fused directly to the 3′-end of the luciferase gene. This insert was introduced into the replicon construct using an Asc1 restriction site located in core, directly upstream of the neomycin marker gene. The adaptive mutation at position 1179 (serine to isoleucine) was also introduced (Blight K J, Kolykhalov, A A, Rice, C M, Science 290(5498):1972-1974). A stable cell line constitutively expressing this HCV replicon construct was generated as described above. The luciferase reporter assay was set up as described for the HCV replicon FRET assay with the following modifications. Following 4 days in a 37° C./5% CO2 incubator, cells were analyzed for Renilla Luciferase activity using the Promega Dual-Glo Luciferase Assay System. Media (100 μl) was removed from each well containing cells. To the remaining 50 μl of media, 50 μl of Dual-Glo Luciferase Reagent was added, and plates rocked for […] to 2 h at room temperature. Dual-Glo Stop & Glo Reagent (50 μl) was then added to each well, and plates were rocked again for an additional 10 min to 2 h at room temperature. Plates were read on a Packard TopCount NXT using a luminescence program.
The percentage inhibition was calculated using the formula below: […]
The values were graphed and analyzed using XLfit to obtain the EC50 value.

SMILES	IC50 [1] [nM]	EC50 [2] [nM]	EC50 [3] [nM]
COc1cc2ccc3cc2cc1C=CCC(C)(C)COC(=O)N[C@H]1CCCCC/C=C\[C@@H]2C[C@@]2(C(=O)NS(=O)(=O)C2CC2)NC(=O)[C@@H]2C[C@]3(OC)CN2C1=O (mixture of isomers) [Compound 1]	1	9.8	1.6
COc1cc2ccc3cc2cc1CCCCCCOC(=O)N[C@H]1CCCCCCC[C@@H]2C[C@@]2(C(=O)NS(=O)(=O)C2CC2)NC(=O)[C@@H]2C[C@]3(OC)CN2C1=O [Compound 2]	5	–	3.9
COc1cc2ccc3cc2cc1CCCC(C)(C)CCOC(=O)N[C@H]1CCCCCCC[C@@H]2C[C@@]2(C(=O)NS(=O)(=O)C2CC2)NC(=O)[C@@H]2C[C@]3(OC)CN2C1=O [Compound 3]	1	–	2.7
